Assay results published in ChEMBL document CHEMBL3862031, “Design, synthesis and activity of novel sorafenib analogues bearing chalcone unit” (Bioorg Med Chem Lett, 2016).
One block for each compound: values may come before it.

How the values were obtained:
[1] = (§1) Cytotoxicity against human HepG2 cells after 72 hrs by MTT assay; assay type: functional, cell-based; settings: HepG2, 72 h
[2] = (§2) Cytotoxicity against human MCF7 cells after 72 hrs by MTT assay; assay type: functional, cell-based; settings: MCF7, 72 h
[3] = (§3) Cytotoxicity against human A549 cells after 72 hrs by MTT assay; assay type: functional, cell-based; settings: A549, 72 h
[4] = (§4) Cytotoxicity against human PC3 cells after 72 hrs by MTT assay; assay type: functional, cell-based; settings: PC-3, 72 h
MCF7 [5] = experiment: Potency index, ratio of sorafenib IC50 to compound IC50 for human MCF7 cells; assay type: functional
HepG2 [6] = experiment: Potency index, ratio of sorafenib IC50 to compound IC50 for human HepG2 cells; assay type: functional
PC-3 [7] = experiment: Potency index, ratio of sorafenib IC50 to compound IC50 for human PC3 cells; assay type: functional
[8] = molecular target: Vascular endothelial growth factor receptor 2 (Homo sapiens, UniProt P35968); experiment: Inhibition of VEGFR2 (unknown origin) using FAM-labeled peptide as substrate preincubated for 10 mins followed by substrate addition by mobility shift assay
[9] = molecular target: Serine/threonine-protein kinase B-raf (Homo sapiens, UniProt P15056); experiment: Inhibition of BRAF (unknown origin) using FAM-labeled peptide as substrate after 1 hr by Lanthascreen assay
A549 = experiment: as §3; assay type: functional, cell-based
HepG2 [10] = experiment: as §1; assay type: functional, cell-based
MCF7 [11] = experiment: as §2; assay type: functional, cell-based
PC-3 [12] = experiment: as §4; assay type: functional, cell-based

Chain of Vascular endothelial growth factor receptor 2 (P35968 whole entry): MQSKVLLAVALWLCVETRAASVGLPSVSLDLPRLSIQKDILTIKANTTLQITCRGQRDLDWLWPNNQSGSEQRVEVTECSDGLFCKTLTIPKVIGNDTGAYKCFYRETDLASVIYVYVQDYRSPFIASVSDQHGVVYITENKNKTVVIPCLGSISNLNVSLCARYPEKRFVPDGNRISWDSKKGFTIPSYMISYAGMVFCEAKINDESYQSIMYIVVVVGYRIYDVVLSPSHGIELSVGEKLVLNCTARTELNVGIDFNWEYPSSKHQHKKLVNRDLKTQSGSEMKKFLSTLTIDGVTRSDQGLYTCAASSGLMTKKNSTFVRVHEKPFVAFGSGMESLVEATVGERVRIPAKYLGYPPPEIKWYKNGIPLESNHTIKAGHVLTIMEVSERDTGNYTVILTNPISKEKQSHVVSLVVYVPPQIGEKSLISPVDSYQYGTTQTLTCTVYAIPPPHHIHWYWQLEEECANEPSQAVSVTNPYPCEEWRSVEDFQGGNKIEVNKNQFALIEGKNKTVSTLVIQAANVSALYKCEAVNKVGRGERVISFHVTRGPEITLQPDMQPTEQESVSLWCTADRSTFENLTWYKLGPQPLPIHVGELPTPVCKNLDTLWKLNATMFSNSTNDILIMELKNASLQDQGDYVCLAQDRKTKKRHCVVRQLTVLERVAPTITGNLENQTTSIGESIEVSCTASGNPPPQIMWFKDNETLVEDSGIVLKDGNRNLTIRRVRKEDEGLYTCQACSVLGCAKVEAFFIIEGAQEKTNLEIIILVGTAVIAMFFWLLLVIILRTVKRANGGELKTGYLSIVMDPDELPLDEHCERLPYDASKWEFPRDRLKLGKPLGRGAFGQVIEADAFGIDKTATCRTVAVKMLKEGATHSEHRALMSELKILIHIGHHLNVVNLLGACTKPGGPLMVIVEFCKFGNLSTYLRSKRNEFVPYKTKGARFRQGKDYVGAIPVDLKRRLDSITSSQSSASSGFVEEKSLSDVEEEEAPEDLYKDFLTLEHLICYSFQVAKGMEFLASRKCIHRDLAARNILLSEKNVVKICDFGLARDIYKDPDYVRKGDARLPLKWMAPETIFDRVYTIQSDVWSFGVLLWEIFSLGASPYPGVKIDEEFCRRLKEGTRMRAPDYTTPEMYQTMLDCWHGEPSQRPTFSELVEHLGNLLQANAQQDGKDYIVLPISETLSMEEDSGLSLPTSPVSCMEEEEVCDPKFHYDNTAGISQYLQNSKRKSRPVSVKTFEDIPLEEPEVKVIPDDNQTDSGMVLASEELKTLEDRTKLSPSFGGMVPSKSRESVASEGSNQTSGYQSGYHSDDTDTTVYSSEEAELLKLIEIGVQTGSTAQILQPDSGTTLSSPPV
Chain of Serine/threonine-protein kinase B-raf (P15056 whole entry): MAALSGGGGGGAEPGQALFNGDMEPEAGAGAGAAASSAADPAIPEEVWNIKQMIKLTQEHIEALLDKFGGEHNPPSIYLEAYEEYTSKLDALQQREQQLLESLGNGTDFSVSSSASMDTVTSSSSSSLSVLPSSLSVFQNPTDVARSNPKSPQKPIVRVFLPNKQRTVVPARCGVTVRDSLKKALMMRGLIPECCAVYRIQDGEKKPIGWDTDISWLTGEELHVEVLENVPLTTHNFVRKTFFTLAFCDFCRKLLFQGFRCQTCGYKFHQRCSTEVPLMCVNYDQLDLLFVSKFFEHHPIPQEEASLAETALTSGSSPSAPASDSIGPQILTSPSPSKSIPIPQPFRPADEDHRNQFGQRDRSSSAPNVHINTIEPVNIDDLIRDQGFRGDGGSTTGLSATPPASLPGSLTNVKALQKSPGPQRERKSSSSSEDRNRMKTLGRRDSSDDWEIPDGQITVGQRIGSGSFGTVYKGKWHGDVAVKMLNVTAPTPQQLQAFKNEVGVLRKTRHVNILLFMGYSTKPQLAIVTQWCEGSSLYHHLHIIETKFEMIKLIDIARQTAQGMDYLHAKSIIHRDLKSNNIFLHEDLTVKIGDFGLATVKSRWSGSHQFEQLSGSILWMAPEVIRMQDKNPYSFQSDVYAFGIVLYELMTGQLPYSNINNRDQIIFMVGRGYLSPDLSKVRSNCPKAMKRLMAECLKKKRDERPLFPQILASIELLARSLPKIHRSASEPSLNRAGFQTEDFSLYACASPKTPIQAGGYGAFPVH

Structure (SMILES): CNC(=O)c1cc(Oc2ccc(/C=C/C(=O)c3ccc(Cl)cc3)cc2)ccn1
- IC50 [1]: 36.6 µM
- IC50 [2]: 17.5 µM

Structure (SMILES): CNC(=O)c1cc(Oc2ccc(C(=O)/C=C/c3cccc([N+](=O)[O-])c3)cc2)ccn1
- IC50 [1]: > 50 µM
- IC50 [2]: > 50 µM

Structure (SMILES): CNC(=O)c1cc(Oc2ccc(C(=O)/C=C/c3ccc(C#N)cc3)cc2)ccn1
- IC50 [3]: 26.4 µM
- IC50 [1]: 5.43 µM
- IC50 [2]: 9.52 µM
- IC50 [4]: 3.87 µM

Structure (SMILES): CNC(=O)c1cc(Oc2ccc(/C=C/C(=O)c3ccc(C)cc3)cc2)ccn1
- IC50 [1]: > 50 µM
- IC50 [2]: 24.9 µM

Structure (SMILES): CNC(=O)c1cc(Oc2ccc(C(=O)/C=C/c3ccc([N+](=O)[O-])cc3)cc2)ccn1
- IC50 [3]: > 50 µM
- IC50 [4]: 11.1 µM

Structure (SMILES): CNC(=O)c1cc(Oc2ccc(C(=O)/C=C/c3ccc(OC)cc3)cc2)ccn1
- IC50 [3]: > 50 µM
- IC50 [4]: > 50 µM

Structure (SMILES): CNC(=O)c1cc(Oc2ccc(C(=O)/C=C/c3cccc(Cl)c3Cl)cc2)ccn1
- IC50 [3]: > 50 µM
- IC50 [1]: > 50 µM
- IC50 [4]: > 50 µM

Structure (SMILES): CNC(=O)c1cc(Oc2ccc(C(=O)/C=C/c3ccc(OC)c(OC)c3OC)cc2)ccn1
- IC50 [1]: 9.81 µM
- IC50 [2]: 2.91 µM

Structure (SMILES): CNC(=O)c1cc(Oc2ccc(/C=C/C(=O)c3ccc(Br)cc3)cc2)ccn1
- IC50 [3]: 20.1 µM
- IC50 [1]: 22 µM
- IC50 [2]: 7.1 µM
- IC50 [4]: 3.56 µM

Structure (SMILES): CNC(=O)c1cc(Oc2ccc(NC(=O)Nc3ccc(Cl)c(C(F)(F)F)c3)cc2)ccn1 [SORAFENIB]
- IC50 [3]: 2.92 µM
- IC50 [1]: 3.44 µM
- IC50 [2]: 3.18 µM
- IC50 [4]: 3.24 µM

- IC50 [8]: 3.2 µM
- IC50 [9]: 1.8 µM
Structure (SMILES): CNC(=O)c1cc(Oc2ccc(C(=O)/C=C/c3cc(OC)c(OC)c(OC)c3)cc2)ccn1
- IC50 [3]: 9.5 µM
- IC50 [1]: 0.56 µM
- IC50 [2]: 3.88 µM
- IC50 [4]: 3.15 µM
- Ratio IC50 (MCF7 [5]): 1.03 - 6.14
- Ratio IC50 (HepG2 [6]): 6.14
- Ratio IC50 (PC-3 [7]): 1.03 - 6.14

Structure (SMILES): CNC(=O)c1cc(Oc2ccc(C(=O)/C=C/c3ccc(F)cc3)cc2)ccn1
- IC50 [3]: 18.6 µM
- IC50 [1]: 12.6 µM
- IC50 [2]: 28.5 µM
- IC50 [4]: 6.14 µM

Structure (SMILES): CNC(=O)c1cc(Oc2ccc(C(=O)/C=C/c3ccc(Cl)c(Cl)c3)cc2)ccn1
- IC50 [3]: 33.7 µM
- IC50 [1]: 11.4 µM
- IC50 [2]: 13.2 µM
- IC50 [4]: 8.26 µM

Structure (SMILES): CNC(=O)c1cc(Oc2ccc(C(=O)/C=C/c3ccc(Cl)cc3Cl)cc2)ccn1
- IC50 [3]: 9.46 µM
- IC50 [1]: 11.7 µM
- IC50 [2]: 3.99 µM
- IC50 [4]: 9.22 µM

- IC50 [8]: 0.72 µM
- IC50 [9]: 2.9 µM
Structure (SMILES): CNC(=O)c1cc(Oc2ccc(C(=O)/C=C/c3cccc(Br)c3)cc2)ccn1
- IC50 [3]: 9.94 µM
- Activity (A549): Dose-dependent effect
- IC50 [1]: 2.87 µM
- Activity (HepG2 [10]): Dose-dependent effect
- IC50 [2]: 10.4 µM
- Activity (MCF7 [11]): Dose-dependent effect
- IC50 [4]: 3.4 µM
- Activity (PC-3 [12]): Dose-dependent effect

- IC50 [8]: 1.1 µM
- IC50 [9]: 2.4 µM
Structure (SMILES): CNC(=O)c1cc(Oc2ccc(C(=O)/C=C/c3ccccc3)cc2)ccn1
- IC50 [3]: 5.04 µM
- IC50 [1]: 6.64 µM
- IC50 [2]: 5.96 µM
- IC50 [4]: 3.17 µM
- Ratio IC50 (PC-3 [7]): 1.02

Structure (SMILES): CNC(=O)c1cc(Oc2ccc(/C=C/C(=O)c3ccc([N+](=O)[O-])cc3)cc2)ccn1
- IC50 [1]: 41.4 µM
- IC50 [2]: 54.3 µM

- IC50 [8]: > 50 µM
- IC50 [9]: > 50 µM
Structure (SMILES): CNC(=O)c1cc(Oc2ccc(/C=C/C(=O)c3ccc(F)cc3)cc2)ccn1
- IC50 [1]: 12.3 µM
- IC50 [2]: 2.05 µM
- Ratio IC50 (MCF7 [5]): 1.55

Structure (SMILES): CNC(=O)c1cc(Oc2ccc(C(=O)/C=C/c3ccc(Br)cc3)cc2)ccn1
- IC50 [3]: > 50 µM
- IC50 [1]: > 50 µM
- IC50 [2]: > 50 µM
- IC50 [4]: 18.5 µM

Structure (SMILES): CNC(=O)c1cc(Oc2ccc(C(=O)/C=C/c3ccc(F)cc3Cl)cc2)ccn1
- IC50 [3]: 21.1 µM
- IC50 [1]: 7.32 µM
- IC50 [2]: 21.1 µM
- IC50 [4]: 4.76 µM
